Source: US11865103B2, “Methods of treating disorders associated with glycosylation defective proteins” (CASE WESTERN RESERVE UNIVERSITY, priority 2016, dated 2024)

Key:
hCLRN1-YFP = test: Localization of wild-type hCLRN1-YFP in neuromast hair cells of hCLRN1-YFP; clrn1^+/+ larvae treated with SERCA inhibitors; type: in vivo, zebrafish; conditions: for Effect on pattern of localization of wild-type hCLRN1-YFP to the hair cell's bundle or plasma membrane: clrn1^+/+ larvae treated with TG or ART; for YFP intensity in the ROI in hair bundles (Mean±SEM): clrn1^+/+ larvae, 1 uM TG or 0.4 uM ART + 0.01% DMSO in E3 medium, E3 medium 62.82±2.15
Procedure: (§1) Thapsigargin (TG, 1 mg, Sigma-Aldrich, #T9033) stock in 100% DMSO was diluted in E3 medium to make the required final concentration of the drug. Five different concentrations that were earlier reported to induce ER stress and are non-toxic or lower lethal dose (LD50) in the zebrafish (0.1, 0.5, 1.0, 2.5, 5 μM concentrations) were used in this study. A total of 25 larvae per dosage and treatment duration from the genotypes hCLRN1^N48K-YFP; clrn1^+/+ and hCLRN1-YFP; clrn1^+/+, no older than 72 hours post fertilization (hpf) at the start of the experiment, were placed in a well of 12-well uncoated culture plate (BD Falcon, Canaan, CT). For ER stress induction, larvae were incubated in different dosage of TG from 1 hr to overnight at 28.5° C., followed by three times wash with E3 medium at 28.5° C. (Table 2) and hair cells from the hCLRN1^N48K-YFP; clrn1^+/+ and hCLRN1-YFP; clrn1^+/+ lines were examined for the respective protein distribution pattern in the hair cell bundle and the cell body. Live confocal images of ‘O’ and ‘ML1’ neuromasts per larvae were capture using Leica SP2 confocal microscope with 40× oil immersion objective. Unadjusted 1 micron middle section images of four hair bundles per ML1 neuromast of larvae from TG treated and untreated groups were analyzed using Image J software version v. 1.48 (FIG. 4). The hair bundle trafficked amount of hCLRN1^N48K protein corresponds to the change in YFP intensity in the hair bundle in the TG treated larvae. Quantification of YFP fluorescence intensity was carried out as described in the previous experiment for unconventional trafficking of hCLRN1^N48K-YFP by hGRASP55 cargos. […] Student's t-test was used to confirm the observed changes in the YFP intensity in the hair bundles of TG treatment compared to untreated hCLRN1^N48K-YFP; clrn1^+/+ larvae, is significant (FIG. 4J).
Arthemisinin (ART, 100 mg, Sigma-Aldrich, #361593) in 100% DMSO was diluted in E3 medium to make the final concentration. Five different concentrations within the range of reported ER stress inducing level in the zebrafish (0.1, 0.25, 0.4, 0.5, and 1 μM concentrations) were used in this study. A total of 25 larvae, no older than 72 hpf at the start of the experiment, were placed in a well of 12-well uncoated culture plate (BD 35 Falcon, Canaan, CT). […] From the captured confocal images of these neuromast hair cells, unadjusted 1 micron middle section images of 4 mature hair bundles from ML1 neuromast per larvae were considered for the YFP intensity quantification in unadjusted ROI covering the middle section of each hair bundles using the imageJ software. […] Quantification of YFP fluorescence intensity was carried out as described in the previous experiment for unconventional trafficking of hCLRN1^N48K-YFP by hGRASP55 cargos. […]

[1] = system: hCLRN1^N48K-YFP; clrn1^+/+ larvae; test: Larval survival/lethality by TG or ART dose and treatment duration; type: in vivo, zebrafish; parameters: key: ‘S’ = Surviving; ‘L’ = Lethal
Procedure: as §1
Arthemisinin (ART, 100 mg, Sigma-Aldrich, #361593) in 100% DMSO was diluted in E3 medium to make the final concentration. Five different concentrations within the range of reported ER stress inducing level in the zebrafish (0.1, 0.25, 0.4, 0.5, and 1 μM concentrations) were used in this study. A total of 25 larvae, no older than 72 hpf at the start of the experiment, were placed in a well of 12-well uncoated culture plate (BD 35 Falcon, Canaan, CT). For ER stress induction, larvae were exposed in different dosage of ART for different duration at 28.5° C. (Table 3) and washed three times with E3 medium, and hair cells from the hCLRN1-YFP; clrn1^+/+ larvae and hCLRN1^N48K-YFP; clrn1^+/+ larvae were examined for the respective protein distribution pattern in the hair cell bundle and the cell body. Live confocal Z-stack images of otic ‘O’ and middle ‘ML’ neuromasts per larvae of hCLRN1-YFP; clrn1^+/+ larvae and hCLRN1^N48K-YFP; clrn1^+/+ genotypes from the untreated group in the E3 medium, 0.01% DMSO treatment group and ART treatment group were capture using Leica SP2 confocal microscope at 40× oil immersion objective. Hair cells from 2 otic (0) and 2 middle (ML) neuromasts per larvae were examined for the change in YFP intensity in the hair bundle and cell body. From the captured confocal images of these neuromast hair cells, unadjusted 1 micron middle section images of 4 mature hair bundles from ML1 neuromast per larvae were considered for the YFP intensity quantification in unadjusted ROI covering the middle section of each hair bundles using the imageJ software. […] The hair bundle trafficked amount of hCLRN1^N48K protein corresponds to the change in YFP intensity in the hair bundle in the ART treated larvae. Quantification of YFP fluorescence intensity was carried out as described in the previous experiment for unconventional trafficking of hCLRN1^N48K-YFP by hGRASP55 cargos. Student's t-test was used to confirm the observed changes in the YFP intensity in the hair bundles of ART treatment compared to untreated and TG treated hCLRN1^N48K-YFP; clrn1^+/+ larvae, is significant (FIG. 4J).

C[C@@H]1CC[C@H]2[C@@H](C)C(=O)O[C@@H]3O[C@@]4(C)CC[C@@H]1[C@]32OO4 [ART, Artemisinin]
Effect on pattern of localization of wild-type hCLRN1-YFP to the hair cell's bundle or plasma membrane (hCLRN1-YFP): did not affect the pattern of localization | YFP intensity in the ROI in hair bundles (Mean±SEM) (hCLRN1-YFP): 71.32±2.05 | Larvae survival ([1]; ART 0.4 μM, exposure 8 h): L | Larvae survival ([1]; ART 0.4 μM, exposure 10 h): L | Larvae survival ([1]; ART 0.5 μM, exposure 1 h): L | Larvae survival ([1]; ART 0.5 μM, exposure 2 h): L | Larvae survival ([1]; ART 0.5 μM, exposure 4 h): L | Larvae survival ([1]; ART 0.5 μM, exposure 6 h): L | Larvae survival ([1]; ART 0.5 μM, exposure 8 h): L | Larvae survival ([1]; ART 0.5 μM, exposure 10 h): L | Larvae survival ([1]; ART 1.0 μM, exposure 1 h): L | Larvae survival ([1]; ART 1.0 μM, exposure 2 h): L | Larvae survival ([1]; ART 1.0 μM, exposure 4 h): L | Larvae survival ([1]; ART 1.0 μM, exposure 6 h): L | Larvae survival ([1]; ART 1.0 μM, exposure 8 h): L | Larvae survival ([1]; ART 1.0 μM, exposure 10 h): L

C/C=C(/C)C(=O)O[C@H]1C(C)=C2[C@H]([C@@H]1OC(=O)CCCCCCC)[C@@](C)(OC(C)=O)C[C@H](OC(=O)CCC)[C@@]1(O)[C@H]2OC(=O)[C@@]1(C)O [TG, Thapsigargin]
Effect on pattern of localization of wild-type hCLRN1-YFP to the hair cell's bundle or plasma membrane (hCLRN1-YFP): did not affect the pattern of localization | YFP intensity in the ROI in hair bundles (Mean±SEM) (hCLRN1-YFP): 68.57±1.36 | Larvae survival ([1]; TG 0.1 μM, exposure 1 h): S | Larvae survival ([1]; TG 0.1 μM, exposure 2 h): S | Larvae survival ([1]; TG 0.1 μM, exposure 3 h): S | Larvae survival ([1]; TG 0.1 μM, exposure 4 h): S | Larvae survival ([1]; TG 0.1 μM, exposure 8 h): S | Larvae survival ([1]; TG 0.1 μM, exposure 16 h): S | Larvae survival ([1]; TG 0.5 μM, exposure 1 h): S | Larvae survival ([1]; TG 0.5 μM, exposure 2 h): S | Larvae survival ([1]; TG 0.5 μM, exposure 3 h): S | Larvae survival ([1]; TG 0.5 μM, exposure 4 h): S | Larvae survival ([1]; TG 0.5 μM, exposure 8 h): S | Larvae survival ([1]; TG 0.5 μM, exposure 16 h): L | Larvae survival ([1]; TG 1.0 μM, exposure 1 h): S | Larvae survival ([1]; TG 1.0 μM, exposure 2 h): S | Larvae survival ([1]; TG 1.0 μM, exposure 3 h): S | Larvae survival ([1]; TG 1.0 μM, exposure 4 h): S | Larvae survival ([1]; TG 1.0 μM, exposure 8 h): L | Larvae survival ([1]; TG 1.0 μM, exposure 16 h): L | Larvae survival ([1]; TG 2.5 μM, exposure 1 h): L | Larvae survival ([1]; TG 2.5 μM, exposure 2 h): L | Larvae survival ([1]; TG 2.5 μM, exposure 3 h): L | Larvae survival ([1]; TG 2.5 μM, exposure 4 h): L | Larvae survival ([1]; TG 2.5 μM, exposure 8 h): L | Larvae survival ([1]; TG 2.5 μM, exposure 16 h): L | Larvae survival ([1]; TG 5.0 μM, exposure 1 h): L | Larvae survival ([1]; TG 5.0 μM, exposure 2 h): L | Larvae survival ([1]; TG 5.0 μM, exposure 3 h): L | Larvae survival ([1]; TG 5.0 μM, exposure 4 h): L | Larvae survival ([1]; TG 5.0 μM, exposure 8 h): L | Larvae survival ([1]; TG 5.0 μM, exposure 16 h): L
